From ChEMBL document CHEMBL1201862, “PubChem BioAssay data set” (2004)
Calls of active or inactive are those of the source.

How the values were obtained:
[1] = target: FAD-linked sulfhydryl oxidase ALR (Homo sapiens, UniProt P55789); experiment: ALR-catalysed DTT oxidation blockers – biochemical, H2O2 detection, luminescence, cherry-pick, dose response (AID 493248)
Genome polyprotein = Genome polyprotein (dengue virus type 2, UniProt P29990); experiment: flavivirus cap methylation enzyme inhibition – biochemical, confirmation dose response, primary screen (AID 588689); assay type: functional
[2] = target: Luciferin 4-monooxygenase (Photinus pyralis, UniProt P08659); experiment: inhibition of purified Photinus pyralis luciferase – biochemical, luminescence, dose response (AID 1891)
[3] = Luminescence Cell-Based Dose Confirmation HTS to Identify Inhibitors of Platelet Dense Granule Release. [Related pubchem assays: 1663 (Primary HTS), 1678 (Summary of Project)]; assay type: functional
[4] = target: T1, High affinity choline transporter 1 (Homo sapiens, UniProt Q9GZV3); experiment: human choline transporter blockers, potency – cell-based, 5-point CRC, membrane potential dye, dose response (AID 504840); assay type: functional
T1 sequence (Q9GZV3 whole entry): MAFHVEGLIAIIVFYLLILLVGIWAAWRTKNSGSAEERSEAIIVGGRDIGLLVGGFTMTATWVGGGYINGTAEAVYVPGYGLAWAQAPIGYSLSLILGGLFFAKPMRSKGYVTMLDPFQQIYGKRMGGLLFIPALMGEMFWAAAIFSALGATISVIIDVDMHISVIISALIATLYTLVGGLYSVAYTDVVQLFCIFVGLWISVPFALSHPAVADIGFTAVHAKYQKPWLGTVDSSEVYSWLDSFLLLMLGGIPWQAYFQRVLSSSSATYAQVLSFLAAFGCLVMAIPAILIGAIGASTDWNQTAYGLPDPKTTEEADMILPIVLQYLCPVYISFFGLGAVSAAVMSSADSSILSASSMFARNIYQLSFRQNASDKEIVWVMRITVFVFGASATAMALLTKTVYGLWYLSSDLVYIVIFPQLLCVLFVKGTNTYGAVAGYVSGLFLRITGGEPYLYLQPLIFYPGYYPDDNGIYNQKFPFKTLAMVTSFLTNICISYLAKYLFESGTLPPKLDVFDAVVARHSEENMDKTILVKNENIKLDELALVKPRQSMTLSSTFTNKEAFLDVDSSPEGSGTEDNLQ

Protein skinhead-1 = target: T2, Protein skinhead-1 (Caenorhabditis elegans, UniProt P34707); assay type: functional
T2 sequence (P34707 whole entry): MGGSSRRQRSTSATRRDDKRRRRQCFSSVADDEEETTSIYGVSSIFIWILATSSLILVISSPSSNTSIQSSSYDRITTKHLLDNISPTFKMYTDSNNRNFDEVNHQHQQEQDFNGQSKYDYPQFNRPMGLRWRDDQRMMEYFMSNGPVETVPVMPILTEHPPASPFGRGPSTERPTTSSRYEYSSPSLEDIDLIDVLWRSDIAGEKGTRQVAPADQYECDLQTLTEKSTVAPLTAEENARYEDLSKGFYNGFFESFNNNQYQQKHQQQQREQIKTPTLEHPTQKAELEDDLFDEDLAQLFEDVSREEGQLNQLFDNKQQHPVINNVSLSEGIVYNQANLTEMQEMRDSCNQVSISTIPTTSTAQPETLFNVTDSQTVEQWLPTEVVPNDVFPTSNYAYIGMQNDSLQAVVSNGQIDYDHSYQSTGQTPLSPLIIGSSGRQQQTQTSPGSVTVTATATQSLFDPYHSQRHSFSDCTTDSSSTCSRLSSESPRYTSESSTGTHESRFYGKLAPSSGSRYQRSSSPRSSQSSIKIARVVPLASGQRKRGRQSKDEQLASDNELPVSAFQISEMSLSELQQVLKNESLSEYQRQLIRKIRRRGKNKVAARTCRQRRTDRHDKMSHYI

Leucine aminopeptidase = target: T3, Leucine aminopeptidase (Plasmodium falciparum 3D7, UniProt Q8IL11); experiment: P. falciparum M17LAP inhibitors, primary screen, biochemical, fluorogenic H-Leu-NHMec substrate, 1536-well (AID 1619); assay type: functional
T3 sequence (Q8IL11 whole entry): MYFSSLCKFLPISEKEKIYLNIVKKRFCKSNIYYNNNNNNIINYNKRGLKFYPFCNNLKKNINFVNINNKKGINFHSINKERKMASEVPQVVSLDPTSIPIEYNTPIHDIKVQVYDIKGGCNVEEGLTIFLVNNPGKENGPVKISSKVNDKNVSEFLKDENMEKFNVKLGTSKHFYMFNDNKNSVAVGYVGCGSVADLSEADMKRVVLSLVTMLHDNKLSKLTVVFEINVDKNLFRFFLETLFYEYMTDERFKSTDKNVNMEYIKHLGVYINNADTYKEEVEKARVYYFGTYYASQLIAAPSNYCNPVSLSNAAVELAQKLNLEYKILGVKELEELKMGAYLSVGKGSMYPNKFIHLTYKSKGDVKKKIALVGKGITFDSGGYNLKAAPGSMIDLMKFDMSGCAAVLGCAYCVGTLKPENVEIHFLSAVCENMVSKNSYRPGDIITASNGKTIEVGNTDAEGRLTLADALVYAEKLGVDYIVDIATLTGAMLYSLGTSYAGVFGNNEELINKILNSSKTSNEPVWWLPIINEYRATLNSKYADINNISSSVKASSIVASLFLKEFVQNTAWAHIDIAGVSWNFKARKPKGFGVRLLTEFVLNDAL

[5] = DRD fibroblast viability loss – cell-based, non-viral oncogenic, luminescence, dose response (AID 1934); assay type: functional; conditions: Homo sapiens
BJ [6] = experiment: cells; assay type: functional, cell-based; conditions: Homo sapiens
Cytochrome P450 2D6 = Cytochrome P450 2D6 (Homo sapiens, UniProt P10635);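 further: CYP2D6 member of a cytochrome P450 panel assay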
BJ [7] = experiment: BJ-TERT fibroblast viability loss – cell-based, RAS-independent, luminescence, dose response (AID 1933); assay type: functional; conditions: Homo sapiens
BJ [8] = experiment: BJ-TERT-LT-ST fibroblast viability loss – cell-based, RAS-independent, luminescence, dose response (AID 1935); assay type: functional; conditions: Homo sapiens;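 further: BJ fibroblasts immortalized with TERT plus LT and ST oncogenes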

Chain of Luciferin 4-monooxygenase (P08659 whole entry): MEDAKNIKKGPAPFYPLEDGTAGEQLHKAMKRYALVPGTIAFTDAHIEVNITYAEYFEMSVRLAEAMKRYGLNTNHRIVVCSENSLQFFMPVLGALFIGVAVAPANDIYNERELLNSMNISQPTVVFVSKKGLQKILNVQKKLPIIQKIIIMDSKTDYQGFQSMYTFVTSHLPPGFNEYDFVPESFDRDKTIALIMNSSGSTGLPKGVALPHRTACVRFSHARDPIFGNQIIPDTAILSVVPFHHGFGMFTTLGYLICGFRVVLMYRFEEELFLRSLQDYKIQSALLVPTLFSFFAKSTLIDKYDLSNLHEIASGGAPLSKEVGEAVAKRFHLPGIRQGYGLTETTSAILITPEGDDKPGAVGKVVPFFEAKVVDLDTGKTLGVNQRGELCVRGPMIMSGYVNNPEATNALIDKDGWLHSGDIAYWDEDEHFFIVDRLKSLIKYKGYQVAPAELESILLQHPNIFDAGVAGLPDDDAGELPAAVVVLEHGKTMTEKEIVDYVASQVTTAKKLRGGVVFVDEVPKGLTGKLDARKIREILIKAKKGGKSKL
Chain of FAD-linked sulfhydryl oxidase ALR (P55789 whole entry): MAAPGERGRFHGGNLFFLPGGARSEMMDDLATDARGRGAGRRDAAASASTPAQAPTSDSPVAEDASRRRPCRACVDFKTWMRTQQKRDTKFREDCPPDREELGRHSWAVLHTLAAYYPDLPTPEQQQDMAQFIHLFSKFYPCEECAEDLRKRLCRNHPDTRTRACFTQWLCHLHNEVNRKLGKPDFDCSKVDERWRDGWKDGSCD
Chain of Genome polyprotein (P29990 2492-3391 limits assumed): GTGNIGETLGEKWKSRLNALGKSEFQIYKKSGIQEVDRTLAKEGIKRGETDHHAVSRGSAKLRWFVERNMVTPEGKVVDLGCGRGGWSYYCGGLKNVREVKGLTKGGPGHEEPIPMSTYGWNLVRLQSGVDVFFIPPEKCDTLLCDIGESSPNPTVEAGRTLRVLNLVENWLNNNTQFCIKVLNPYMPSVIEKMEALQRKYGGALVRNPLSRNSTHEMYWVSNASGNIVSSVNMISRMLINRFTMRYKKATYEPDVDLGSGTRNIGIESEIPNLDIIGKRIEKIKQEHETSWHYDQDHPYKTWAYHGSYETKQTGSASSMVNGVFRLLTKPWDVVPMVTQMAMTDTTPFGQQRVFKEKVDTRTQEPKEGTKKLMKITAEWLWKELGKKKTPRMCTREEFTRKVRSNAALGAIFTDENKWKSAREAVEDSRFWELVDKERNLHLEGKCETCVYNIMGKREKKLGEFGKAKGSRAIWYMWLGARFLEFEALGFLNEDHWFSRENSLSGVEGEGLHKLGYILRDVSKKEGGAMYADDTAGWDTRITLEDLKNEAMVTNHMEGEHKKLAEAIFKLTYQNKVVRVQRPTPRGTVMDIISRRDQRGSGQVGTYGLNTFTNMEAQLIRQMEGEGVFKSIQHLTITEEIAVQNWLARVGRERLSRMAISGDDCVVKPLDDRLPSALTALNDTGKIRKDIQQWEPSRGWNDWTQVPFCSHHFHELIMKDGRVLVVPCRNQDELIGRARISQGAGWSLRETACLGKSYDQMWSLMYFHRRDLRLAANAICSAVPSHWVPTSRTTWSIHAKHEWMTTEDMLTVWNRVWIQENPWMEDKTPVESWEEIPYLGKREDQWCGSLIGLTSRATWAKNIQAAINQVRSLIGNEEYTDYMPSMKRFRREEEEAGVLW
Chain of Cytochrome P450 2D6 (P10635 whole entry): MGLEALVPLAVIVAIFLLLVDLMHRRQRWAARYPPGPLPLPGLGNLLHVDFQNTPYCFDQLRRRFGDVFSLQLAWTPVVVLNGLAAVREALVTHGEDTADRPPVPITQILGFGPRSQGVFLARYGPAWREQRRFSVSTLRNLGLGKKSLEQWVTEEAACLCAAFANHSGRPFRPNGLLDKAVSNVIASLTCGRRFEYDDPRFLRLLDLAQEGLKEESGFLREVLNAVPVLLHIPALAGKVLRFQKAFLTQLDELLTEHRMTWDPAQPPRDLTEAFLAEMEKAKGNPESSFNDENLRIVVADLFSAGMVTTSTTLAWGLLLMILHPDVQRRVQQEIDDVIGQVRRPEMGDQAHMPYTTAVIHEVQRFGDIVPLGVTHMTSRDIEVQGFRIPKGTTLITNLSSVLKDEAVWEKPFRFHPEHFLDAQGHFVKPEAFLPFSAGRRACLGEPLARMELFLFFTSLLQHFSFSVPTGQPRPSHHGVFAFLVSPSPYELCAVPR

## O=C(O)CCc1ccc(-c2ccc(Cl)cc2)o1
[1]
  AC50: 2.22 µM (active)

## Cc1ccc(N2NC(=O)/C(=C/c3ccc(-c4ccc(Cl)c(C(=O)O)c4)o3)C2=O)cc1C
Genome polyprotein
  IC50: 79.1 µM (active)

## CC(=O)Nc1ccc(C(=O)N(C)c2ccccc2)cc1
[2]
  EC50: > 112 µM (not active)
[3]
  EC50: > 112 µM (not active)

## Cc1ccc(C(=O)Nc2ncc([N+](=O)[O-])s2)cc1
[4]
  IC50: 10.5 µM (active)
Protein skinhead-1
  IC50: > 100 µM (inactive)

## CCOC(=O)N1CCN(C(=O)CCCN2C(=O)CSc3nc(C)cc(C)c32)CC1
[2]
  EC50: > 112 µM (not active)
[3]
  EC50: > 112 µM (not active)

## COc1ccc(-c2cc(-c3ccc(N)cc3)nc(N)c2C#N)cc1OC
[1]
  AC50: 0.794 µM (active)

## COc1ccc(/C=N/Nc2nccnc2Cl)c(OC)c1
[2]
  EC50: 6.55 µM (active)
[3]
  EC50: 2.65 µM (active)

## COc1ccc(/C=C2/C(=O)NC(=O)N(c3ccccc3)C2=O)cc1CN1C(=O)c2ccccc2C1=O
Genome polyprotein
  IC50: 73.9 µM (active)

## CCCc1cc(C(=O)NN=C(S)NC(C)c2ccccc2)cs1 (centres undefined)
[4]
  IC50: 12.6 µM (active)

## COc1ccc(C(=O)N2CCCCCC2)cc1OC1CCN(C(C)C)CC1
[4]
  IC50: 13.9 µM (active)

## Oc1cc(-c2ccccc2)nc2nc(COc3ccccc3)nn12
Leucine aminopeptidase
  IC50: 7.61 µM (active)

## CCN(CC)c1ccc2c(c1)OC(N)=C(C#N)C2c1cccnc1 (centres undefined)
[5]
  EC50: 0.347 µM (active)
BJ [6]
  EC50: 0.341 µM (inconclusive)
Cytochrome P450 2D6
  AC50: 15.8 µM (inconclusive)
BJ [7]
  EC50: 0.368 µM (inconclusive)
BJ [8]
  EC50: 0.396 µM (inconclusive)

## O=C(CCNS(=O)(=O)c1ccccc1C(F)(F)F)N1CCN(c2ccccc2O)CC1
[1]
  AC50: 5.51 µM (active)

## CC1(C)c2[nH]c3ccccc3c2C[C@@H]2C(=O)N(Cc3ccccc3)C(=O)N21
[4]
  IC50: 12.9 µM (active)

## COc1cc(/C=N/c2cccc(C)c2)c(O)c([N+](=O)[O-])c1
[4]
  IC50: 13.2 µM (active)

## COc1ccc(-c2cc(=O)oc3cc(OC(C)C(=O)O)ccc23)cc1 (centres undefined)
Leucine aminopeptidase
  IC50: 43.9 µM (active)
